This is an account of results in US7563781B2, “Triazolopyrimidine derivatives” (Janssen Pharmaceutica NV, priority 2006, dated 2009).

Assay [1] addresses T1, CAK complex (human Cdk7, human Cyclin H, MAT-1) (Homo sapiens, UniProt P50613).
T1 construct: made in house; host or cells: SF-900 insect cells co-infected with Flag-Cdk7 and Bab-Cyclin H baculoviruses
Kind of assay: in vitro time-resolved-fluorescence assay for the CAK kinase activity. It is filed as biochemical. As to conditions: compound 20 uM; for inhibition at 20 µM: read-out: CAK % inhib. The text has this: Cyclin Dependent Kinase Activating Kinase (CAK) is a complex of proteins that phosphorylates a well-conserved threonine (Thr) residue in all mammalian cyclin dependent kinases (cdks). The CAK complex can also phosphorylate several components of the transcriptional machinery, such as the C-terminal domain (CTD) of RNA polymerase II in the TFIIH transcription complex. The CAK complex localizes to the nucleus, and is composed of three proteins: Cdk7, Cyclin H, and MAT-1. The exemplified method teaches the cloning and expression CAK subunits, particularly a human Cdk7 and a human Cyclin H. The method of the present invention exemplified herein is equally applicable to the cloning and expression of any CAK subunit, such as variants, structural or functional polymorphisms of the human Cdk7 or the human Cyclin H, or their orthologs in other animals such as rat, mouse, pig, dog and monkey.
The CAK complex was purified from co-infected SF-900 insect cells at 48 hours post infection by batch immunoaffinity purification. The infected cells were pelleted by centrifugation and lysed in 1/10 of the culture volume in a solution containing 50 mM Hepes pH 7.5, 10 mM MgCl2, 1 mM DTT, 10 mM Beta-Glycerol phosphate, 20 uM Na-oVO4, 0.2 mM PMSF and 1 μg/mL each of leupeptin, aprotinin, and pepstatin on ice. Cells were mechanically lysed by trituration through a 22-gauge needle followed by sonication or alternately by nitrogen cavitation. The lysed cells were centrifuged at 50,000×G for 1 hour at 4° C. to remove debris and the supernatant was applied to 1/10 volume of prewashed Flag-M2 immunoaffinity resin (Sigma). The CAK complex, by nature of the Flag tagged Cdk7 protein, was allowed to bind to the Flag antibody of the resin overnight at 4° C. with gentle rocking. The resin was washed 4 times with 5 resin volumes of lysis buffer and the bound proteins were eluted by competition with 0.5 mg/mL Flag peptide ([…], American Peptide Co, Inc., SEQ ID NO: 16) in a total of 2 resin volumes. To remove the Flag peptide, the eluted material was applied to PD-10 gel filtration columns (Pharmacia) under conditions recommended by the manufacturer.
Measurement of CAK kinase activity was accomplished using an antibody methodology in which a Europium labeled antibody binds preferentially to serine phosphorylated GST-CTD substrate. The long-lived europium label fluorescence allows a greater signal-to-noise ratio due to the delay in reading the emission wavelength, thereby eliminating signals from immediate fluorescence and fluorescent pharmaceutical screening compounds.
The time-resolved-fluorescence assay for the CAK kinase activity is performed as follows. In a well of a black glutathione coated 96 well micro titer plate (Pierce Chemical, No. 15360), the following reagents were added: 1) 25 ul substrate solution containing 500 ng purified GST-CTD in a buffer having 50 mM Hepes pH 7.5, 10 mM MgCl2, 1 mM DTT, 0.2 mM PMSF, 40 uM Na-oVO4, and 22 uM ATP (as a background control, the buffer, including ATP but not substrate was added); 2) 2.5 ul of screening compounds in a diluent containing 30% DMSO/25 mM Hepes pH7.5 (As a control, the diluent only was added. Typically the final concentration of compound is 1 uM); and 3) 250 ng CAK enzyme complex in enzyme buffer containing 25 ul of 50 mM Hepes pH 7.5, 10 mM MgCl2, 1 mM DTT, 0.2 mM PMSF, and 40 uM Na-oVO4. The micro titer plate was shaken for 2 minutes on a titer plate shaker and allowed to incubate at 30° C. for 20 minutes.
Subsequently, Kinase Stop Solution (75 mM EDTA, 0.2 mM PMSF, 1 mM DTT, 120 uM Na oVO4 in PBS) was added (50 ul/well). The plate was shaken for 2 minutes and incubated overnight at room temperature to allow substrate binding to the wells. The plate contents were flicked out, and the wells of the plate were washed 4 times with 350 ul of wash buffer (Delphia wash buffer, Perkin-Elmer, Inc.). The plate was tapped dry. […]

The target in assay [2] is T2, Focal Adhesion Kinase (full-length Flag-tagged human FAK) (Homo sapiens, UniProt Q05397).
T2 construct: a purified recombinant full-length Flag-tagged human FAK protein; Flag; made in house; host or cells: baculovirus infected insect cells
In words: in vitro FAK ELISA kinase assay. It counts as biochemical. As to conditions: compound 10 uM, ATP 2 uM; for inhibition at 10 µM: read-out: FAK % Inhib ave: 10 uM. The procedure:
Compound effects on the tyrosine kinase activity of Focal Adhesion Kinase were assessed with an in vitro FAK ELISA kinase assay. This assay measures the incorporation of phosphate from ATP into a FAK substrate protein using an antibody specific for phospho-tyrosine.
500 ng of FAKsubstrate, a purified recombinant fusion protein of GST and a 73 amino acid region surrounding the Tyr397 human FAK autophosphorylation site, was coated in a high-protein binding polystyrene 96 well plate overnight in a buffer containing 50 mM Hepes, pH 7.5, 150 mM NaCl, 0.1 mM Na-oVO4, 0.1 mM NaF and 1 protease inhibitor tablet/10 mL (Complete Mini-EDTA-free, Roche). The next day this solution was removed and the wells were incubated with 0.2% BSA in 50 mM Hepes, pH 7.5, 150 mM NaCl, 0.2 mM PMSF for 1 hour at 30° C. to block unoccupied protein binding sites. The wells were then washed with 50 mM Hepes, pH 7.5, 150 mM NaCl, 0.1% Tween 20. The kinase reaction was performed with 25 ng/well of FAK enzyme (a purified recombinant full-length Flag-tagged human FAK protein made in baculovirus infected insect cells) in 0.1 mL of a buffer containing 25 mM Hepes, pH 7.5, 5 mM MgCl2, 0.5 mM MnCl2, 10 uM NaoVO4, 0.2 mM PMSF. Compounds were added from 30% DMSO stock solutions for a screening concentration of 10 uM or IC50 determinations from 50 uM in half-log dilutions. The reaction is initiated with addition of ATP to a final concentration of 2 uM and incubated at 30° C. for 1 hour. Following the kinase reaction step, the wells were washed and incubated with 50 ng of Horseradish Peroxidase conjugated anti-phosphotyrosine antibody (PT-66 HRP, Sigma) in 0.1 mL wash buffer for 1 hour at 30° C. Wells were then washed and 0.1 mL HRP substrate, Tetra-methyl Benzidine (Sigma) was added and the color reaction allowed to proceed for 2-3 minutes followed by the addition of 0.1 mL of 1N H2SO4 to stop the HRP reaction. Percent inhibition of FAK kinase activity was calculated by comparing compound containing wells to wells treated with diluent only. Background was subtracted from all wells and was defined as the activity of FAK using 500 ng/well of BSA as a substrate. IC50 values were obtained using Prism data analysis software.

T1 sequence (P50613 with tags, fused parts or gaps): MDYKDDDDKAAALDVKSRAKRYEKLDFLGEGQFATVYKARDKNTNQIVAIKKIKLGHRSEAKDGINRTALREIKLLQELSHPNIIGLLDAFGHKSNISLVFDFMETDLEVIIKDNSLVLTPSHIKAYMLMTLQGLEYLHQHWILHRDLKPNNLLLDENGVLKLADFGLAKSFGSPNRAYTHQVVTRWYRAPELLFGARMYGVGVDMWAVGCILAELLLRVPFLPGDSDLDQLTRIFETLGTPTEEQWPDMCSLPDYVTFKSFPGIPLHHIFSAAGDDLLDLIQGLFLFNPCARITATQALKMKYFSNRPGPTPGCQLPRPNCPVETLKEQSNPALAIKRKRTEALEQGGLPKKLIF
T1 sequence (as listed by the source partner): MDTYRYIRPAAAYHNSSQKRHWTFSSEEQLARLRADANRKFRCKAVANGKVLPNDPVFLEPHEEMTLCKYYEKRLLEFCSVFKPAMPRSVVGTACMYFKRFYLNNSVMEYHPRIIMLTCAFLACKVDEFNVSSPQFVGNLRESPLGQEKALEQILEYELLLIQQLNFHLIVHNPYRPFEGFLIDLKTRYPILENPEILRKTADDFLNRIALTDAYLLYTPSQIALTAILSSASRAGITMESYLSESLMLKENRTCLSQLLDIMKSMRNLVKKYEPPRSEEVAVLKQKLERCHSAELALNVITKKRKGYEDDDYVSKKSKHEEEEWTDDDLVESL
T2 sequence (Q05397 whole entry): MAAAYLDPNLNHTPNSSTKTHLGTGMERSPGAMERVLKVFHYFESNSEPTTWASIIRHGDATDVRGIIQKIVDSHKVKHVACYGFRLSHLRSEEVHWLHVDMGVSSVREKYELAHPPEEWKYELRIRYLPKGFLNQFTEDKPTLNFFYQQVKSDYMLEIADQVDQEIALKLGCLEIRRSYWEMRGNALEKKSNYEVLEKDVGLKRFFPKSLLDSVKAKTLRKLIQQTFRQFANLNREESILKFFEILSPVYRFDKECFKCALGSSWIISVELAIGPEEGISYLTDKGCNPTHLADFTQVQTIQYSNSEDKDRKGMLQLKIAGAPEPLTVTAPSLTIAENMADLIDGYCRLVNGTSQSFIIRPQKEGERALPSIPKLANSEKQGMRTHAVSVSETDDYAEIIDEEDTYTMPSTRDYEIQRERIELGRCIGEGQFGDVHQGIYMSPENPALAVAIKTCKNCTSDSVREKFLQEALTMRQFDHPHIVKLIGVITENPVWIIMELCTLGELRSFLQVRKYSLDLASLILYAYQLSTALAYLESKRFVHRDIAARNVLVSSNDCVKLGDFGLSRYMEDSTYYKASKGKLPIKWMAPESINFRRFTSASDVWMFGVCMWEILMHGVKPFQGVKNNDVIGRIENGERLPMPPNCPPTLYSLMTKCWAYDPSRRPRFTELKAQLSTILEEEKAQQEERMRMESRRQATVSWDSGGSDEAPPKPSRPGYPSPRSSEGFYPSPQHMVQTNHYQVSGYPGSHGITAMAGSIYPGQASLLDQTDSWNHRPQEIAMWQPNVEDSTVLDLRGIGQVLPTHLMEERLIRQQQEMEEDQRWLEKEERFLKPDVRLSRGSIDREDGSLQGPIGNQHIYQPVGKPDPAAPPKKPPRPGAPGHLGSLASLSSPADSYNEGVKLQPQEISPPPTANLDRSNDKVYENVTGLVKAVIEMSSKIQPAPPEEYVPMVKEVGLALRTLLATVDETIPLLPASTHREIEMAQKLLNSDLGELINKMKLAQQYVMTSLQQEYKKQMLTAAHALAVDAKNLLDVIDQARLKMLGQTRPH

Regarding `CCN(CC)CCOC(=O)c1ccc(Nc2ncc3nnn(-c4ccc5c(c4)CCC5)c3n2)cc1` [Compound 33, 4-(3-Indan-5-yl-3H-[1,2,3]triazolo[4,5-d]pyrimidin-5-ylamino)-benzoic acid 2-diethylamino-ethyl ester], in assay [1], the “CAK % inhib; 20 uM” value is 42.00%. Also, in assay [2], the “FAK % Inhib ave: 10 uM” value is given as 28.57%.
In the case of `CCCCNS(=O)(=O)c1cccc(-n2nnc3cnc(Nc4cc(OC)c(OC)c(OC)c4)nc32)c1` [Compound 34, N-Butyl-3-[5-(3,4,5-trimethoxy-phenylamino)-[1,2,3]triazolo[4,5-d]pyrimidin-3-yl]-benzene-sulfonamide], the inhibition at 20 µM in assay [1] came out at 19%. Further, the inhibition at 10 µM in assay [2] was 25%.
`Cc1nccc(-c2cccc(-n3nnc4cnc(Nc5ccc(-c6csnn6)cc5)nc43)c2)n1` [Compound 36, {3-[3-(2-Methyl-pyrimidin-4-yl)-phenyl]-3H-[1,2,3]triazolo[4,5-d]pyrimidin-5-yl}-(4-[1,2,3]thiadiazol-4-yl-phenyl)-amine]: the inhibition at 20 µM in assay [1] came out at 2.3%. In addition, the inhibition at 10 µM in assay [2] was -1.2%.
As to `CNC(=O)c1cccc(Nc2ncc3nnn(-c4cccc(-c5ccnc(C)n5)c4)c3n2)c1` [Compound 37, N-Methyl-3-{3-[3-(2-methyl-pyrimidin-4-yl)-phenyl]-3H-[1,2,3]triazolo[4,5-d]pyrimidin-5-ylamino}-benzamide], the inhibition at 20 µM in assay [1] was -1.1%. In assay [2], the inhibition at 10 µM was -7%.
As for `c1ccc(-c2cccc(Nc3ncc4nnn(-c5ccc(-c6csnn6)cc5)c4n3)c2)cc1` [Compound 38, Biphenyl-3-yl-[3-(4-[1,2,3]thiadiazol-4-yl-phenyl)-3H-[1,2,3]triazolo[4,5-d]pyrimidin-5-yl]-amine], in assay [1], the inhibition at 20 µM stood at 27.2%. For the same compound, the inhibition at 10 µM in assay [2] worked out at 3.4%.
As for `CNC(=O)c1cccc(Nc2ncc3nnn(-c4ccc(-c5csnn5)cc4)c3n2)c1` [Compound 39, N-Methyl-3-[3-(4-[1,2,3]thiadiazol-4-yl-phenyl)-3H-[1,2,3]triazolo[4,5-d]pyrimidin-5-ylamino]-benzamide], the inhibition at 20 µM in assay [1] was -1.5%. Besides, the inhibition at 10 µM in assay [2] was 3.2%.
The like results for `CNC(=O)c1cccc(-n2nnc3cnc(Nc4cccc(-c5ccnc(C)n5)c4)nc32)c1` [Compound 40, N-Methyl-3-{5-[3-(2-methyl-pyrimidin-4-yl)-phenylamino]-[1,2,3]triazolo[4,5-d]pyrimidin-3-yl}-benzamide] were, in that order, -2.21% and 6.99%.
With `CNC(=O)c1cccc(-n2nnc3cnc(Nc4cccc(-c5ccccc5)c4)nc32)c1` [Compound 41, 3-[5-(Biphenyl-3-ylamino)-[1,2,3]triazolo[4,5-d]pyrimidin-3-yl]-N-methyl-benzamide], the inhibition at 20 µM in assay [1] came out at 5.6%. The inhibition at 10 µM in assay [2] was -3.2%.
`COc1cc(Nc2ncc3nnn(-c4cc(OC)c(OC)c(OC)c4)c3n2)cc(OC)c1OC` [Compound 42, (3,4,5-Trimethoxy-phenyl)-[3-(3,4,5-trimethoxy-phenyl)-3H-[1,2,3]triazolo[4,5-d]pyrimidin-5-yl]-amine]: the inhibition at 20 µM in assay [1] came to 3.4%. Besides, the inhibition at 10 µM in assay [2] is 35.6%.
Take `COc1cc(-n2nnc3cnc(Nc4ccc5[nH]ncc5c4)nc32)cc(OC)c1OC` [Compound 43]: in assay [1], the inhibition at 20 µM was 11.8%. The inhibition at 10 µM in assay [2] was found to be 33.3%.
As to `COc1cc(-n2nnc3cnc(Nc4cccc(S(N)(=O)=O)c4)nc32)cc(OC)c1OC` [Compound 44, 3-[3-(3,4,5-Trimethoxy-phenyl)-3H-[1,2,3]triazolo[4,5-d]pyrimidin-5-ylamino]-benzene-sulfonamide], the inhibition at 20 µM in assay [1] worked out at 10.2%. In addition, in assay [2], the inhibition at 10 µM was 24.7%.
In the case of `NS(=O)(=O)c1ccccc1-n1nnc2cnc(Nc3ccc4[nH]ncc4c3)nc21` [Compound 45, 2-[5-(1H-Indazol-5-ylamino)-[1,2,3]triazolo[4,5-d]pyrimidin-3-yl]-benzene-sulfonamide], in assay [1], the inhibition at 20 µM worked out at 16.2%. In assay [2], the inhibition at 10 µM was 21.8%.
As to `NS(=O)(=O)c1ccccc1Nc1ncc2nnn(-c3ccccc3S(N)(=O)=O)c2n1` [Compound 46], the inhibition at 20 µM in assay [1] came out at 44.9%. For the same compound, the inhibition at 10 µM in assay [2] worked out at 29.2%.
Regarding `NS(=O)(=O)c1cccc(Nc2ncc3nnn(-c4cccc(S(N)(=O)=O)c4)c3n2)c1` [Compound 47], in assay [1], the inhibition at 20 µM worked out at 51.3%. Further, in assay [2], the inhibition at 10 µM was 63.6%.
For the compound `CCCCNS(=O)(=O)c1cccc(Nc2ncc3nnn(-c4cccc(S(=O)(=O)NCCCC)c4)c3n2)c1` [Compound 48], the inhibition at 20 µM in assay [1] was -37.4%. The inhibition at 10 µM in assay [2] came to 7.44%.
In the same order, the values of `CCCCNS(=O)(=O)c1cccc(-n2nnc3cnc(Nc4ccc(C(=O)NCCN(CC)CC)cc4)nc32)c1` [Compound 49] are 44.6% and 99.5%.
Turning to `CCCCNS(=O)(=O)c1cccc(-n2nnc3cnc(Nc4ccc(N5CCN(Cc6ccccc6)CC5)cc4)nc32)c1` [Compound 50, 3-{5-[4-(4-Benzyl-piperazin-1-yl)-phenylamino]-[1,2,3]triazolo[4,5-d]pyrimidin-3-yl]-N-butyl-benzene-sulfonamide], the inhibition at 20 µM in assay [1] came to 31.7%. For the same compound, the inhibition at 10 µM in assay [2] is 48.4%.
For the compound `CCN(CC)CCNC(=O)c1ccc(Nc2ncc3nnn(-c4ccc(C(=O)NCCN(CC)CC)cc4)c3n2)cc1` [Compound 52], in assay [1], the inhibition at 20 µM is -19.1%. In assay [2], the inhibition at 10 µM came to 47.9%.
